Measured values published in the supplement of paper PMC10307832.

Key:
Experiment in all cases: relative viability (nuclei count vs DMSO), 5 days (fraction); higher = more cells survive
[1] = compound: N#CC1(c2ccc(NC(=O)c3cccnc3NCc3ccncc3)cc2)CCCC1 [Apatinib] + C[C@@H](Oc1cc(-c2cnn(C3CCNCC3)c2)cnc1N)c1c(Cl)ccc(F)c1Cl [Crizotinib] (partner 1 µM)
Procedure, shortened: (§1)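 After 5 days of treatment, lung cancer cells in 1536-well plates were fixed and stained in a single step (final 0.05% Triton X-100, 1% formaldehyde, 1 ug/ml Hoechst) and their nuclei counted on 4× images. Treatment had been applied by pin tool the day after seeding as one drug alone or as a fixed anchor-drug dose with five library-drug doses (not always all listed) in √10 steps. Relative viability is the nuclei count of treated wells divided by that of vehicle wells, and values are medians of duplicate plates.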

[2] = compound: CN(C)C(=N)NC(=N)N [Metformin] + NC(=O)Nc1cc(-c2cccc(F)c2)sc1C(=O)N[C@H]1CCCNC1 [AZD7762] (partner 0.2 µM)
Procedure, shortened: as §1

[3] = compound: N#CC1(c2ccc(NC(=O)c3cccnc3NCc3ccncc3)cc2)CCCC1 [Apatinib] + Nc1ncn([C@H]2C[C@H](O)[C@@H](CO)O2)c(=O)n1 [Decitabine] (partner 2 µM)
Procedure, shortened: as §1

[4] = compound: CN(C)C(=N)NC(=N)N [Metformin] + CC(=O)c1c(C)c2cnc(Nc3ccc(N4CCNCC4)cn3)nc2n(C2CCCC2)c1=O [Palbociclib] (partner 0.5 µM)
Procedure, shortened: as §1

| Cell Line | relative viability ([1]; first compound 0.08 µM) | relative viability ([1]; first compound 0.253 µM) | relative viability ([1]; first compound 0.8 µM) | relative viability ([1]; first compound 2.53 µM) | relative viability ([1]; first compound 8 µM) | relative viability ([2]; first compound 31.62 µM) | relative viability ([2]; first compound 100 µM) | relative viability ([2]; first compound 316.23 µM) | relative viability ([2]; first compound 1000 µM) | relative viability ([3]; first compound 0.08 µM) | relative viability ([3]; first compound 0.253 µM) | relative viability ([3]; first compound 0.8 µM) | relative viability ([3]; first compound 2.53 µM) | relative viability ([3]; first compound 8 µM) | relative viability ([4]; first compound 10 µM) | relative viability ([4]; first compound 31.62 µM) | relative viability ([4]; first compound 100 µM) | relative viability ([4]; first compound 316.23 µM) | relative viability ([4]; first compound 1000 µM) | relative viability ([2]; first compound 10 µM) |
| --- | --- | --- | --- | --- | --- | --- | --- | --- | --- | --- | --- | --- | --- | --- | --- | --- | --- | --- | --- | --- |
| HCC-15 | 0.85 | 0.814 | 0.811 | 0.799 | 0.717 | 1.07 | 1.11 | 1 | 1.27 | 0.703 | 0.656 | 0.638 | 0.604 | 0.606 | 0.726 | 0.807 | 0.716 | 0.562 | 0.831 | – |
| NCI-H441 | 0.789 | 0.756 | 0.809 | 0.416 | 0.426 | 0.7 | 1.05 | 0.982 | 1.06 | 0.229 | 0.233 | 0.248 | 0.285 | 0.444 | – | 0.211 | 0.165 | 0.215 | 0.238 | – |
| NCI-H1993 | 0.943 | 0.868 | 0.782 | 0.801 | 0.68 | 0.656 | 0.744 | 0.716 | 0.9 | 0.604 | 0.623 | 0.519 | 0.559 | 0.544 | 0.63 | 0.701 | 0.739 | 0.576 | 0.67 | 0.714 |
| NCI-H1915 | 0.945 | 0.864 | 0.855 | 0.819 | 0.78 | 0.713 | 0.686 | 0.669 | 0.707 | 0.296 | 0.266 | 0.265 | 0.339 | 0.388 | – | 0.406 | 0.515 | 0.462 | 0.463 | – |
| ABC-1 | – | 1.42 | 1.11 | 0.932 | 0.614 | 1.03 | 0.986 | 1.1 | 0.909 | – | 1.04 | 1.19 | 1.21 | 0.895 | – | 0.9 | 0.62 | 0.592 | 0.279 | 1.24 |
| NCI-H2087 | 0.89 | 0.799 | 0.741 | 0.614 | 0.7 | 1.21 | 1.12 | 1.11 | 1.39 | 0.272 | 0.285 | 0.331 | 0.239 | 0.236 | 0.263 | 0.226 | 0.268 | 0.218 | 0.235 | 1.3 |
| NCI-H1755 | 0.858 | 0.885 | 0.911 | 0.803 | 0.769 | 0.379 | 0.408 | 0.345 | 0.408 | 0.712 | 0.701 | 0.644 | 0.91 | 0.837 | 0.411 | 0.397 | 0.43 | 0.433 | 0.416 | 0.361 |
| HCC-366 | 0.437 | 0.587 | 0.605 | 0.466 | 0.547 | 0.299 | 0.362 | 0.265 | 0.371 | 0.395 | 0.365 | 0.309 | 0.353 | 0.432 | 0.342 | 0.376 | 0.309 | 0.31 | 0.334 | 0.233 |
